The text below walks through data of patent publication US6565859B1, “Galenical formulations” (Novartis AG, priority 1993, dated 2003).

As usually defined, the Cmax is the maximum level reached in the sampled fluid or tissue.

A short description of data set [1]: Pharmacokinetics in rats after gastric intubation, blood levels by ELISA with rapamycin specific antibodies. The settings on record: Example 3; rapamycin given in formulations A and B, 10 mg per rat, oral. On the technique in general: An ELISA detects its analyte on a solid surface through an enzyme-linked reagent.
Description: (§1) Formulation A is an emulsion preconcentrate and formulation B is a microemulsion preconcentrate. 6 male Wistar rats of mean body weight of 300 g are used per form. One day before treatment, food is withdrawn from the rats but the rats are permitted free access to water. The rats are then anesthetized by intraperitoneal injection of 2×1 ml 20% urethane and a permanent catheter is inserted into the right vena jugularis to permit blood sampling. 500 ml/animal of the formulation is administered by gastric intubation 20 hours after the surgery. A total dose of 10 mg of drug per animal is administered. Blood samples of 0.7 ml are taken from the jugular catheter of each animal 15 minutes before drug administration and then 0.17, 0.5, 1, 1.5, 2, 3, 5 and 8 hours after drug administration. The samples are kept in heparinized tubes and are analysed by means of ELISA using microtitre plates coated with rapamycin specific antibodies. The animals are killed immediately after taking the last blood sample.
Another data set can be described thus: in vivo. The note with it: male, Wistar, rat, whole blood, po, 10 mg.

Description for in vivo: as §1

Regarding `CO[C@H]1C[C@@H]2CC[C@@H](C)[C@@](O)(O2)C(=O)C(=O)N2CCCC[C@H]2C(=O)O[C@H]([C@H](C)C[C@@H]2CC[C@@H](O)[C@H](OC)C2)CC(=O)[C@H](C)/C=C(\C)[C@@H](O)[C@@H](OC)C(=O)[C@H](C)C[C@H](C)/C=C/C=C/C=C/1C` [rapamycin, Rapamycin], in data set [1], the “absorption (result in words)” value is recorded as “well absorbed”. Besides, in the data set “in vivo”, the Cmax fell in the range of 2670 to 3400 ng/mL.
